{"source": "PubChem BioAssay (NCI)", "experiment_in_all_cases": "inhibition of tumour cell growth, NCI panel, 48 h", "key": {"DU-145 prostate": {"tested_on": "DU-145 prostate"}, "EKVX NSCLC": {"tested_on": "EKVX NSCLC"}, "NCI-H23 lung": {"tested_on": "NCI-H23 lung"}, "HOP-92 NSCLC": {"tested_on": "HOP-92 NSCLC"}, "SNB-19 CNS": {"tested_on": "SNB-19 CNS"}, "SK-OV-3 ovarian": {"tested_on": "SK-OV-3 ovarian"}, "IGROV1 ovarian": {"tested_on": "IGROV1 ovarian"}, "CCRF-CEM leukemia": {"tested_on": "CCRF-CEM leukemia"}, "RXF 393 renal": {"tested_on": "RXF 393 renal"}, "MOLT-4 leukemia": {"tested_on": "MOLT-4 leukemia"}, "UACC-257 melanoma": {"tested_on": "UACC-257 melanoma"}, "COLO 205 colon": {"tested_on": "COLO 205 colon"}, "LOX IMVI melanoma": {"tested_on": "LOX IMVI melanoma"}, "SR leukemia": {"tested_on": "SR leukemia"}, "RPMI-8226 leukemia": {"tested_on": "RPMI-8226 leukemia"}, "T-47D breast": {"tested_on": "T-47D breast"}, "HL-60(TB) leukemia": {"tested_on": "HL-60(TB) leukemia"}}, "note": "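Following 48 hours of exposure in 96-well plates, responses at five concentrations were used to interpolate endpoints linearly. At the TGI there is no net growth.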", "data": [{"smiles": "CC1=NN(c2ccccc2)C2(C1)C(Cl)C(=O)N2c1nc2ccccc2s1", "note": "(stereo unspecified)", "values": [{"measurement": "TGI", "setting": "DU-145 prostate", "result": "> 100", "unit": "µM"}, {"measurement": "TGI", "setting": "EKVX NSCLC", "result": "> 100", "unit": "µM"}, {"measurement": "TGI", "setting": "NCI-H23 lung", "result": 77.6, "unit": "µM"}, {"measurement": "TGI", "setting": "HOP-92 NSCLC", "result": "> 100", "unit": "µM"}, {"measurement": "TGI", "setting": "SNB-19 CNS", "result": "> 100", "unit": "µM"}, {"measurement": "TGI", "setting": "SK-OV-3 ovarian", "result": "> 100", "unit": "µM"}, {"measurement": "TGI", "setting": "IGROV1 ovarian", "result": "> 100", "unit": "µM"}, {"measurement": "TGI", "setting": "CCRF-CEM leukemia", "result": 48.8, "unit": "µM"}, {"measurement": "TGI", "setting": "RXF 393 renal", "result": 97.7, "unit": "µM"}, {"measurement": "TGI", "setting": "MOLT-4 leukemia", "result": 78.6, "unit": "µM"}, {"measurement": "TGI", "setting": "UACC-257 melanoma", "result": "> 100", "unit": "µM"}, {"measurement": "TGI", "setting": "COLO 205 colon", "result": 80.6, "unit": "µM"}, {"measurement": "TGI", "setting": "LOX IMVI melanoma", "result": 26.3, "unit": "µM"}, {"measurement": "TGI", "setting": "SR leukemia", "result": 80, "unit": "µM"}, {"measurement": "TGI", "setting": "RPMI-8226 leukemia", "result": 67.2, "unit": "µM"}, {"measurement": "TGI", "setting": "T-47D breast", "result": "> 100", "unit": "µM"}, {"measurement": "TGI", "setting": "HL-60(TB) leukemia", "result": 55.5, "unit": "µM"}]}, {"smiles": "Cc1ccc2c(c1)C(=O)C1(C2)Cc2c(C)cccc2C1=O", "note": "(stereo unspecified)", "values": [{"measurement": "TGI", "setting": "DU-145 prostate", "result": "> 100", "unit": "µM"}, {"measurement": "TGI", "setting": "EKVX NSCLC", "result": "> 100", "unit": "µM"}, {"measurement": "TGI", "setting": "NCI-H23 lung", "result": "> 100", "unit": "µM"}, {"measurement": "TGI", "setting": "HOP-92 NSCLC", "result": "> 100", "unit": "µM"}, {"measurement": "TGI", "setting": "SNB-19 CNS", "result": "> 100", "unit": "µM"}, {"measurement": "TGI", "setting": "SK-OV-3 ovarian", "result": "> 100", "unit": "µM"}, {"measurement": "TGI", "setting": "IGROV1 ovarian", "result": "> 100", "unit": "µM"}, {"measurement": "TGI", "setting": "CCRF-CEM leukemia", "result": "> 100", "unit": "µM"}, {"measurement": "TGI", "setting": "RXF 393 renal", "result": "> 100", "unit": "µM"}, {"measurement": "TGI", "setting": "MOLT-4 leukemia", "result": "> 100", "unit": "µM"}, {"measurement": "TGI", "setting": "UACC-257 melanoma", "result": "> 100", "unit": "µM"}, {"measurement": "TGI", "setting": "COLO 205 colon", "result": "> 100", "unit": "µM"}, {"measurement": "TGI", "setting": "LOX IMVI melanoma", "result": "> 100", "unit": "µM"}, {"measurement": "TGI", "setting": "SR leukemia", "result": "> 100", "unit": "µM"}, {"measurement": "TGI", "setting": "RPMI-8226 leukemia", "result": "> 100", "unit": "µM"}, {"measurement": "TGI", "setting": "T-47D breast", "result": "> 100", "unit": "µM"}, {"measurement": "TGI", "setting": "HL-60(TB) leukemia", "result": "> 100", "unit": "µM"}]}, {"smiles": "CC(=O)NC1C(OCc2ccccc2)OC(CO)C(O)C1OC(C)C(=O)NC(C(=O)NC(CCC(=O)NCCCC(=O)Nc1ccc2c(c1)CN1C(=O)c3ccccc3C1=N2)C(N)=O)C(C)C", "note": "(stereo unspecified)", "values": [{"measurement": "TGI", "setting": "DU-145 prostate", "result": "> 100", "unit": "µM"}, {"measurement": "TGI", "setting": "EKVX NSCLC", "result": "> 100", "unit": "µM"}, {"measurement": "TGI", "setting": "NCI-H23 lung", "result": "> 100", "unit": "µM"}, {"measurement": "TGI", "setting": "HOP-92 NSCLC", "result": "> 100", "unit": "µM"}, {"measurement": "TGI", "setting": "SNB-19 CNS", "result": "> 100", "unit": "µM"}, {"measurement": "TGI", "setting": "SK-OV-3 ovarian", "result": "> 100", "unit": "µM"}, {"measurement": "TGI", "setting": "IGROV1 ovarian", "result": "> 100", "unit": "µM"}, {"measurement": "TGI", "setting": "CCRF-CEM leukemia", "result": "> 100", "unit": "µM"}, {"measurement": "TGI", "setting": "RXF 393 renal", "result": "> 100", "unit": "µM"}, {"measurement": "TGI", "setting": "MOLT-4 leukemia", "result": "> 100", "unit": "µM"}, {"measurement": "TGI", "setting": "UACC-257 melanoma", "result": "> 100", "unit": "µM"}, {"measurement": "TGI", "setting": "COLO 205 colon", "result": "> 100", "unit": "µM"}, {"measurement": "TGI", "setting": "LOX IMVI melanoma", "result": "> 100", "unit": "µM"}, {"measurement": "TGI", "setting": "SR leukemia", "result": "> 100", "unit": "µM"}, {"measurement": "TGI", "setting": "RPMI-8226 leukemia", "result": "> 100", "unit": "µM"}, {"measurement": "TGI", "setting": "T-47D breast", "result": "> 100", "unit": "µM"}, {"measurement": "TGI", "setting": "HL-60(TB) leukemia", "result": "> 100", "unit": "µM"}]}]}
